Laboratory results published in patent US7446117B2, “Cox-2 inhibiting pyridine derivatives” (Glaxo Group Limited, priority 2002, dated 2008).

Molecular target: T1, microsomal h-COX2 (Homo sapiens, UniProt P35354)
T1 construct: made in house; host or cells: baculovirus infected SF9 cells (microsomal preparation)
T1 sequence (P35354 18-604): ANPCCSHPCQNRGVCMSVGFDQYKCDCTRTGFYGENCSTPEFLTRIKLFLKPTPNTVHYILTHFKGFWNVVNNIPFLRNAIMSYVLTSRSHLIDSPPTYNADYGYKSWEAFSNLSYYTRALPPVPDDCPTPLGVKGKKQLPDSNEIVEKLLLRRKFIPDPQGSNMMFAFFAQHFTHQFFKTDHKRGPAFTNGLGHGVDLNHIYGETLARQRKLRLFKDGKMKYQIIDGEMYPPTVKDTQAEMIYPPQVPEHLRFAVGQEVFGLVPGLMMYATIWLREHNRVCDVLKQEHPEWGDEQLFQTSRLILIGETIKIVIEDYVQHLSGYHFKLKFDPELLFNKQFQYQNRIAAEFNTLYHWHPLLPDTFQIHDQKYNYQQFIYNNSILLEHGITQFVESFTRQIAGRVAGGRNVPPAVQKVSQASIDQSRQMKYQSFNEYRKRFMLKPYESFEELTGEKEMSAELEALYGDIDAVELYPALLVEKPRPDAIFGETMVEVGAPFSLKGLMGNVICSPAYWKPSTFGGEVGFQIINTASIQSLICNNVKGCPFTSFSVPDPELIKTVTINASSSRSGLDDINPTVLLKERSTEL
Test: Microsomal assay: inhibitory activity against microsomal h-COX2
Type: biochemical
Conditions: microsomal preparation from baculovirus infected SF9 cells; 1 hour incubation with compound; 0.1 μM arachidonic acid, 10 minutes; PGE2 by EIA; read-out: IC50 values for inhibition of COX-2
Protocol: Biological Data Microsomal Assay
Inhibitory activity against microsomal h-COX2 was assessed against a microsomal preparation from baculovirus infected SF9 cells. An aliquot of microsomal preparation was thawed slowly on ice and a 1/40,000 dilution prepared from it into the assay buffer (sterile water, degassed with argon containing 100 mM HEPES (pH 7.4), 10 mM EDTA (pH7.4), 1 mM phenol, 1 mM reduced glutathione, 20 mg/ml gelatin and 0.001 mM Hematin). Once diluted the enzyme solution was then sonicated for 5 seconds (Branson sonicator, setting 4, 1 cm tip) to ensure a homogeneous suspension. 155 μl enzyme solution was then added to each well of a 96-well microtitre plate containing either 5 μl test compound (40× required test concentration) or 5 μl DMSO for controls. Plates were then mixed and incubated at room temperature for 1 hour. Following the incubation period, 40 μl of 0.5 μM arachidonic acid was added to each well to give a final concentration of 0.1 μM. Plates were then mixed and incubated for exactly 10 minutes (room temperature) prior to addition of 25 μl 1M HCl (hydrochloric acid) to each well to stop the reaction. 25 μl of 1M NaOH (sodium hydroxide) was then added to each well to neutralise the solution prior to determination of PGE2 levels by enzyme immunoassay (EIA).

SMILES	IC50
Cc1cc(NCc2ccc(C)nc2)nc(-c2ccc(S(C)(=O)=O)cc2)c1 [Example 98]	≤ 500 nM
CCc1cc(Nc2ccc(C)nc2)nc(-c2ccc(S(C)(=O)=O)cc2)c1 [Example 99]	≤ 500 nM
CCc1cc(OCc2cccnc2)nc(-c2ccc(S(C)(=O)=O)cc2)c1 [Example 101]	≤ 500 nM
CCc1cc(NCc2cnccn2)nc(-c2ccc(S(C)(=O)=O)cc2)c1 [Example 103]	≤ 500 nM
CS(=O)(=O)c1ccc(-c2cc(CF)cc(NCc3ccccc3)n2)cc1 [Example 104]	≤ 500 nM
CCc1cc(Nc2ccc(F)cc2)nc(-c2ccc(S(C)(=O)=O)cc2)c1 [Example 105]	≤ 500 nM
CCc1cc(NCc2nccn2C)nc(-c2ccc(S(C)(=O)=O)cc2)c1 [Example 108]	≤ 500 nM
CCc1cc(NCc2[nH]cnc2C)nc(-c2ccc(S(C)(=O)=O)cc2)c1 [Example 109]	≤ 500 nM
Cc1cc(-c2ccc(S(C)(=O)=O)cc2)nc(N(C)Cc2nccn2C)c1 [Example 110]	≤ 500 nM
CCn1ccnc1CNc1cc(C)cc(-c2ccc(S(C)(=O)=O)cc2)n1 [Example 112]	≤ 500 nM
Cc1cc(NCc2cn(C)nc2C)nc(-c2ccc(S(C)(=O)=O)cc2)c1 [Example 113]	≤ 500 nM
Cc1cc(NCc2cnn(C)c2C)nc(-c2ccc(S(C)(=O)=O)cc2)c1 [Example 114]	≤ 500 nM
CCc1cc(NCc2cnn(C)c2)nc(-c2ccc(S(C)(=O)=O)cc2)c1 [Example 115]	≤ 500 nM
CCc1cc(OCc2ccnn2C)nc(-c2ccc(S(C)(=O)=O)cc2)c1 [Example 116]	≤ 500 nM
CCc1cc(NCc2cccs2)nc(-c2ccc(S(C)(=O)=O)cc2)c1 [Example 120]	≤ 500 nM
Cc1cc(NCc2cc(C)ns2)nc(-c2ccc(S(C)(=O)=O)cc2)c1 [Example 123]	≤ 500 nM
Cc1cc(NCc2nc(C)cs2)nc(-c2ccc(S(C)(=O)=O)cc2)c1 [Example 124]	≤ 500 nM
Cc1cc(NCc2csnc2C)nc(-c2ccc(S(C)(=O)=O)cc2)c1 [Example 125]	≤ 500 nM
Cc1cc(NCc2cnn(CF)c2)nc(-c2ccc(S(C)(=O)=O)cc2)c1 [Example 126]	≤ 500 nM
CCN(Cc1ccccc1)c1cc(C)cc(-c2ccc(S(C)(=O)=O)cc2)n1 [Example 128]	≤ 500 nM
CCc1cc(NCc2ccc(C)cc2)nc(-c2ccc(S(C)(=O)=O)cc2)c1 [Example 129]	≤ 500 nM

Now from value to compound:

IC50	SMILES
≤ 500 nM	Cc1cc(NCc2cnn(C)c2)nc(-c2ccc(S(C)(=O)=O)cc2)c1 [Example 83, N-[(1-methyl-1H-pyrazol-4-yl)methyl]-4-methyl-6-[4-(methylsulfonyl)phenyl]pyridine-2-amine]
≤ 500 nM	CCc1cc(NCc2ncc[nH]2)nc(-c2ccc(S(C)(=O)=O)cc2)c1 [Example 84]
≤ 500 nM	Cc1cc(OCc2cc(C)n[nH]2)nc(-c2ccc(S(C)(=O)=O)cc2)c1 [Example 85]
≤ 500 nM	Cc1cc(OCc2ccnn2C)nc(-c2ccc(S(C)(=O)=O)cc2)c1 [Example 86]
≤ 500 nM	Cc1cc(NCc2ncnn2C)nc(-c2ccc(S(C)(=O)=O)cc2)c1 [Example 87]
≤ 500 nM	Cc1cc(OCc2cc(C)on2)nc(-c2ccc(S(C)(=O)=O)cc2)c1 [Example 88]
≤ 500 nM	CCc1cc(NC2CCOCC2)nc(-c2ccc(S(C)(=O)=O)cc2)c1 [Example 89, 4-Ethyl-6-[4-(methylsulfonyl)phenyl]-N-(tetrahydro-2H-pyran-4-yl)pyridine-2-amine]
≤ 500 nM	CS(=O)(=O)c1ccc(-c2cc(CF)cc(NC3CCCCC3)n2)cc1 [Example 92]
≤ 500 nM	CCc1cc(NCc2ccccc2)nc(-c2ccc(S(C)(=O)=O)cc2)c1 [Example 93]
≤ 500 nM	Cc1cc(N[C@@H](C)c2ccccc2)nc(-c2ccc(S(C)(=O)=O)cc2)c1 [Example 94]
≤ 500 nM	Cc1cc(NCc2ccccc2C)nc(-c2ccc(S(C)(=O)=O)cc2)c1 [Example 95]
≤ 500 nM	CCc1cc(OCc2ccccc2)nc(-c2ccc(S(C)(=O)=O)cc2)c1 [Example 96]
